Assay results: patent US20240398764A1, “METHODS OF TREATING DISEASES ASSOCIATED WITH SENESCENT CELL ACCUMULATION” (University of Florida Research Foundation, Incorporated, priority 2021, published 2024)

Columns and labels:
[1] = test system: ionizing radiation (IR) induced senescent WI-38 fibroblast cells (IR-SnCs); experiment: Viability of IR-induced senescent WI-38 fibroblast cells; format: cell-based; settings: 72 hr incubation; vs ABT263
Text: (§1) FIG. 2A depicts immunoblots showing degradation of Bcl-xl and Bcl-2 in non-senescent WI-38 fibroblast cells (Non-SnCs) treated with varying concentrations of 753b. 3-actin was used as a loading control. FIG. 2B depicts viability of Non-SnCs treated with varying concentrations of 753b or ABT263. FIG. 2C depicts immunoblots showing degradation of Bcl-xl and Bcl-2 in ionizing radiation-induced senescent WI-38 fibroblast cells (IR-SnCs) treated with varying concentrations of 753b. 3-actin was used as a loading control. FIG. 2D depicts viability of IR-SnCs treated with varying concentrations of 753b or ABT263. FIG. 2E depicts immunoblots showing degradation of Bcl-xl and Bcl-2 in human platelets treated with varying concentrations of 753b. FIG. 2F depicts viability of human platelets treated with varying concentrations of 753b or ABT263.
(§2) The potency of 753b in degrading Bcl-xl/2 was evaluated by immunoblots after the cells or platelets were treated with different concentrations of 753b for 16 h ([…]). 753b is more cytotoxic to IR-SnCs but less toxic to Non-SnCs and platelets. The viability of Non-SnCs, IR-SnCs and platelets was measured 72 hr (Non-SnCs and IR-SnCs) and 48 hr (platelets) after they were incubated with increasing concentrations of 753b or ABT263 compared to cells/platelets with vehicle.

[2] = target: T1, Bcl-xL (Mus musculus, UniProt Q64373); experiment: Bcl-xL level in livers of STZ/HFD mice (Western blotting); format: in vivo, C57BL6 mice; settings: 5 mg/kg twice a week IP, postnatal day 90, vs vehicle
T1 construct: Western blot of Bcl-xl levels in the livers of STZ/HFD mice treated with 753b or vehicle control; from tissue; host or cells: liver of C57BL6 mice (STZ plus high fat diet)
T1 sequence (Q64373 whole entry): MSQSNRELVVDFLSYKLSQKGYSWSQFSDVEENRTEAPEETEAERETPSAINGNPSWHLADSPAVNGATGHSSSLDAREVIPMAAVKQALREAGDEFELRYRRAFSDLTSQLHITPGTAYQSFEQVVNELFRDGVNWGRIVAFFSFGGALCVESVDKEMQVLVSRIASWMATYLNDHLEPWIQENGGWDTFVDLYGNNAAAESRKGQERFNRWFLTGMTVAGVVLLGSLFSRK
Method: GAPDH was used as a loading control. FIG. 6B depicts the relative expression of p16 and p21 at mRNA levels in the livers of STZ/HFD mice treated with 753b or vehicle control. *p<0.05. FIGS. 6C to 6D show senescence-associated beta-galactosidase (SA-β-gal) stained livers of STZ/HFD mice treated with vehicle control (FIG. 6C) or 753b (FIG. 6D). Scale bar: […].
(§3) Experimental design: C57BL6 mice were injected with Streptozotocin (STZ) at postnatal day 2 to induce diabetes and then fed with HFD from postnatal day 30 till the end of the experiments (FIG. 5). Half of the mice started receiving vehicle and the others receiving 753b (5 mg/kg) treatment on postnatal day 45 twice a week by IP injection till the end of the experiments. A group of the mice were euthanized at postnatal day 90 (or day 45 after the initiation of the treatment) for analysis of senescent cell accumulation and steatosis. Another group of the mice were euthanized at postnatal day 150 (or day 105 after the initiation of the treatment) for analysis of liver fibrosis and cancer.
753b effectively clears senescent cells induced by STZ/HFD in the liver. The liver tissues were collected from mice at postnatal day 90 (p90 or 45 days after treatment) for the analyses. […] Data were means±SD of triplicate experiments.

[3] = Hepatic fat accumulation in the STAM model (oil red staining, hepatic triglyceride); format: in vivo, C57BL6 mice; settings: STZ/HFD mice; 5 mg/kg twice a week IP; postnatal day 90
Method: Scale bar: […]. FIG. 7B depicts percentage of oil red^+ area/field of the images depicted in FIG. 7A. Values represented means±SD. *p<0.05. […] Values represented means±SD. *p<0.05.
as §3
753b administration represses hepatic fat accumulation in the STAM model. The liver tissues were collected from mice at postnatal day 90 (p90 or 45 days after treatment) for the analyses. […] Quantification of oil red stained images was performed from 5 livers per group (FIG. 7B). […] Quantification was performed from 5 livers per group and was expressed as means±SD.

[4] = Body conditions and insulin tolerance test in the STAM model; format: in vivo, C57BL6 mice; settings: STZ/HFD mice; 5 mg/kg twice a week IP; postnatal day 150
Method: FIG. 8A is an image showing body condition of STZ/HFD mice treated with vehicle control or 753b. FIG. 8B depicts blood glucose (mg/dL) levels versus time after intraperitoneal injection of insulin in STZ/HFD mice treated with vehicle control or 753b. Data were means±SD from 5 mice per group. *p<0.05.
as §3
753b administration improves body conditions and ameliorates the development of insulin resistance in the STAM model. All the analyses were done in mice at postnatal day 150 (p150 or 105 days after treatment).

[5] = target: Bcl-2 (Homo sapiens, UniProt P10415); experiment: Immunoblot of Bcl-2 degradation in HEK293T cells; format: cell-based; design: endogenous in cells; settings: different concentrations for 16 h, or 1 μM for various time points
Sequence of Bcl-2 (P10415 whole entry): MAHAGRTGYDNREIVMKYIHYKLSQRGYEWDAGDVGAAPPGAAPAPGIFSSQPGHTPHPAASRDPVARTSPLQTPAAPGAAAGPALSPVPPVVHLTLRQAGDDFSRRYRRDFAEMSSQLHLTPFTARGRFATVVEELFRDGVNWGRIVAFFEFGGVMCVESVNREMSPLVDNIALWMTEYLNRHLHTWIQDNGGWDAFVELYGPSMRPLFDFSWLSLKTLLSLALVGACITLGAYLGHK
Method: FIG. 1A depicts immunoblots showing degradation of Bcl-xl and Bcl-2 in HEK293T cells treated with various concentrations of 753b for 16 hours. FIG. 1B depicts immunoblots showing degradation of Bcl-xl and Bcl-2 in HEK293T cells treated with 1 μM 753b for various durations. 3-actin was used as a loading control.
The potency of 753b in degrading Bcl-xl/2 was evaluated in 293T cells by immunoblots after the cells were treated with different concentrations of 753b for 16 h (FIG. 1A) or after the cells were treated with 1 μM 753b for various time points as indicated (FIG. 1B). Representative immunoblots are shown, and β-actin was used as a loading control.

[6] = target: Bcl-xl (Homo sapiens, UniProt Q07817); experiment: Immunoblot of Bcl-xl degradation in WI-38 fibroblast cells (Non-SnCs and IR-SnCs); format: cell-based; design: degradation of Bcl-xl and Bcl-2 in non-senescent WI-38 fibroblast cells (Non-SnCs) treated with varying concentrations of 753b; endogenous in cells; host or cells: WI-38 fibroblasts (non-senescent and ionizing-radiation-induced senescent); settings: different concentrations, 16 h, dose-dependent
Sequence of Bcl-xl (Q07817 whole entry): as the sequence (Q64373 whole entry) above, with E40G, A43S, R45M, S168A, D193E counted along it
Text: as §1, §2

With Cc1ncsc1-c1ccc([C@H](C)NC(=O)[C@@H]2C[C@@H](O)CN2C(=O)[C@@H](NC(=O)CCCCCCC(=O)N2CCN(C[C@]3(C)CCC(c4ccc(Cl)cc4)=C(CN4CCN(c5ccc(C(=O)NS(=O)(=O)c6ccc(N[C@H](CCN7CCOCC7)CSc7ccccc7)c(S(=O)(=O)C(F)(F)F)c6)cc5)CC4)C3)CC2)C(C)(C)C)cc1 [Compound 753b] the “Senolytic potency (viability) against IR-SnCs compared with ABT263” value [1] was “more potent senolytic agent”, the “Bcl-xL accumulation in the livers” value [2] was “reduced Bcl-xL accumulation” and the “Hepatic fat accumulation (oil red staining)” value [3] was “inhibited hepatic fat accumulation”. For the same compound, the Hepatic triglyceride level [3] was “decreased levels of hepatic triglyceride”, the “Body conditions (dehydration and dampen hair)” value [4] was “prevented the development of abnormal body conditions” and the “Insulin resistance (intraperitoneal injected insulin tolerance test)” value [4] was “prevented insulin resistance”. The Bcl-2 degradation [5] was “degrades Bcl-xl and Bcl-2 in a dose- and time-dependent manner”, the “Bcl-xl degradation in IR-SnCs” value ([6]; IR-induced senescent WI-38 fibroblast cells) was “degrades Bcl-xl and Bcl-2 in Non-SnCs and IR-SnCs” and the “Bcl-xl degradation in Non-SnCs” value ([6]; non-senescent WI-38 fibroblast cells) was “degrades Bcl-xl and Bcl-2 in Non-SnCs and IR-SnCs”.
